From patent US20240124456A1, “AZA-ERGOLINE DERIVATIVE AND PREPARATION METHOD THEREFOR AND APPLICATION THEREOF” (SHANGHAITECH UNIVERSITY, priority 2021, published 2024) come the findings set out here.

Assay [1] addresses T1, dopamine D2 receptors (Homo sapiens (Human), UniProt P14416). Nature of the assay: Radioligand competition binding, affinity for dopamine D2 receptors ([3H]-Methylspiperone). As to conditions: [3H]-Methylspiperone (0.3-0.5 nM), HEK-293T membranes; for Ki: I-1 to 19 n=3, I-20 to 27 single determination; for Affinity pKi ± SEM: n=3. As for the experimental part:
A 10 cm diameter dish was used for transfection with 10 ng of the dopamine D2 receptors and 40 μL of PEI. After 48 hours, the 10 cm dish was taken out from the cell culture room and the cultured cells had expressed the dopamine D2 receptors. A vacuum pump was used to suck off the culture medium, 3 mL of lysis buffer (50 mM Tris hydrochloric acid buffer, pH 7.4) was added to each well, and the cells were placed in a 4° C. freezer for 10 minutes. After the cells were detached, the cells were transferred to a 15 mL centrifuge tube and centrifuged at 1500 rpm for 5 minutes at 4° C., and the supernatant was discarded. The cell pellet was transferred to a tissue homogenizer, and 3 mL of lysis buffer was added and fully ground until the cells were broken. Then, cell suspension was equally divided into several EP tubes, centrifuged at 4° C. and 12000 rpm for 5 min, and the supernatant was discarded. The precipitate was the cell membrane component containing the dopamine D2 receptors and stored at −80° C.
First, a standard binding buffer (50 mM HEPES, 50 mM NaCl, 5 mM MgCl2, 0.5 mM EDTA, pH 7.4) was added to the cell membrane component containing the dopamine D2 receptors, and the cell membrane was disrupted and resuspended with an electric tissue homogenizer. 30 μL of membrane protein suspension was added to each well of a 96-well plate. Then, 30 μL of different drugs were added to the 96-well plate from left to right to ensure that the final drug concentrations were 10^−5 M, 10^−6 M, 10^−7 M, 10^−8 M, 10^−9 M and 0 M, with two replicates per treatment. Next, 30 μL [^3H]-N-Methylspiperone was added to each well of the 96-well plate, and the plate was incubated for 2 hours at room temperature in the dark. The unbound isotopes were removed by Whatman GF/C filter membrane and vacuum pump, and the isotopes bound to the receptors were detected by MicroBeta isotope liquid scintillation counter.
The affinity of the compounds of the present invention for the dopamine D2 receptors was determined by the method of radioligand competition experiment. In the first step, a cell membrane component containing specific dopamine D2 receptors was prepared. A10 cm dish was used for transfection with 10 ng of the dopamine D2 receptors and 40 μL of PEI. After 48 hours, the 10 cm dish was taken out from the cell culture room and the cultured cells had expressed the dopamine D2 receptors. A vacuum pump was used to suck off the culture medium, 3 mL of lysis buffer was added to each well, and the cells were placed in a 4° C. freezer for 10 minutes. After the cells were detached, the cells were transferred to a 15 mL centrifuge tube and centrifuged at 1500 rpm for 5 minutes at 4° C., and the supernatant was discarded. The cell pellet was transferred to a tissue homogenizer, and 3 mL of lysis buffer was added and fully ground until the cells were broken. Then, cell suspension was equally divided into several EP tubes, centrifuged at 4° C. and 12000 rpm for 5 min, and the supernatant was discarded. The precipitate was the cell membrane component containing the dopamine D2 receptors. […] First, a standard binding buffer was added to the cell membrane component containing the dopamine D2 receptors, and the cell membrane was disrupted and resuspended with an electric tissue homogenizer. 30 μL of membrane protein suspension was added to each well of a 96-well plate. Then, 30 μL of different drugs were added to the 96-well plate from left to right to ensure that the final drug concentrations were 10^−5 M, 10^−6 M, 10^−7 M, 10^−8 M, 10^−9 M and 0 M, with two replicates per treatment. Next, 30 μL [^3H]-Methylspiperone was added to each well of the 96-well plate. The plate was incubated for 2 hours at room temperature in the dark. Detection. The machine reading value reflected the amount of [^3H]-Methylspiperone bound on the membrane, and after further data processing, the affinity Ki value of different compounds for dopamine D2 receptors was obtained.
(In general: In a radioligand displacement assay an active substance lowers the binding of a labelled ligand.)

Assay [2] has as its target T1, dopamine D2 receptors. Nature of the assay: G protein Gαi1-γ9 dissociation BRET, dopamine D2 receptor functional activity. Type of assay: cell-based. As to conditions: for EC50: HEK-293T, I-1 to 19 n=3, I-20 to 27 single determination, read-out: Gai1 BRET EC50; for Emax: read-out: Gai1 BRET Emax % ± SEM. On the procedure:
To examine downstream G protein signaling mediated by dopamine D2 receptors, 6 cm dish was used for transfection with 1μg of dopamine D2 receptors, 1μg of Gαi1 fused to seaweed luciferase (Gαi1-Rluc), 1 μg of Gβ3, 1 μg of Gγ9 fused to green fluorescent protein (Gγ9-GFP) and 16 μL of transfection reagent PEI. […] On the third day, the drugs were added for test.
(§1) To examine downstream G-protein signaling pathway mediated by dopamine D2 receptors, on the first day, 6 cm dish was used for transfection with 1μg of dopamine D2 receptors, 1μg of Gαi1 containing C-terminal seaweed luciferase (GGαi1-Rluc), 1 μg of […], 1 μg of Gγ9 containing C-terminal green fluorescent protein (Gγ9-GFP) and 16 μL of PEI. At the same time, in order to examine the downstream f3-arrestin2 signaling pathway mediated by dopamine D2 receptors, on the first day, 6 cm dish was used for transfection with 500 μg of dopamine D2 receptors containing C-terminal seaweed luciferase (D2-Rluc), 500 μg of G protein-coupled receptor kinase 2 (GRK2), 2500 μg of […] containing N-terminal green fluorescent protein (GFP2-ARRB2) and 14 μL of PEI. The next day, the overgrown cells were digested and plated a 96-well plate at the amount of cells contained in a 6 cm culture dish with overgrown cells, and 100 μL of culture medium was added to each well. On the third day, the drugs were added for test. The 96-well plate was taken out from the cell culture room to remove the culture medium, 40 μL of the substrate coelenterazine 400a (final concentration of 5 μM) was added to each well, and then 20 μL of different drugs were added in turn from left to right to ensure that the final concentration of the drugs decreased gradually from bottom to top, and each treatment was repeated twice. Finally, the prepared samples were loaded on machine for test. The machine reading value reflected the intracellular β-arrestin2 on the membrane and the dissociation of G protein trimer. The former indicated the degree of activation of the β-arrestin2 signaling pathway downstream of the dopamine D2 receptors, and the latter indicated the degree of activation of the G protein signaling pathway downstream of the dopamine D2 receptors.

In assay [3] the target is T1, dopamine D2 receptors. Nature of the assay: β-arrestin2 recruitment BRET, dopamine D2 receptor functional activity. Type of assay: cell-based. As to conditions: for EC50: HEK-293T, I-1 to 19 n=3, I-20 to 27 single determination, read-out: β-arrestin2 BRET EC50; for Emax: read-out: β-arrestin2 BRET Emax % ± SEM. On the procedure: To examine the downstream f3-arrestin2 signaling pathway mediated by dopamine D2 receptors, 6 cm dish was used for transfection with 500 […] of dopamine D2 receptors fused to seaweed luciferase (D2-Rluc), 500 μg of G protein-coupled receptor kinase 2 (GRK2), 2500 μg of β-arrestin2 fused to green fluorescent protein (GFP2-ARRB2) and 14 μL of transfection reagent PEI. The next day, the overgrown cells were digested and plated a 96-well plate at the amount of cells contained in a 6 cm culture dish with overgrown cells, and 100 μL of culture medium was added to each well. On the third day, the drugs were added for test.
as §1
(In general: Recruitment of arrestin is a read-out of receptor activation apart from second messengers.)

The mark [4] stands for this setting: relative to the endogenous ligand dopamine.

T1 sequence (P14416 whole entry): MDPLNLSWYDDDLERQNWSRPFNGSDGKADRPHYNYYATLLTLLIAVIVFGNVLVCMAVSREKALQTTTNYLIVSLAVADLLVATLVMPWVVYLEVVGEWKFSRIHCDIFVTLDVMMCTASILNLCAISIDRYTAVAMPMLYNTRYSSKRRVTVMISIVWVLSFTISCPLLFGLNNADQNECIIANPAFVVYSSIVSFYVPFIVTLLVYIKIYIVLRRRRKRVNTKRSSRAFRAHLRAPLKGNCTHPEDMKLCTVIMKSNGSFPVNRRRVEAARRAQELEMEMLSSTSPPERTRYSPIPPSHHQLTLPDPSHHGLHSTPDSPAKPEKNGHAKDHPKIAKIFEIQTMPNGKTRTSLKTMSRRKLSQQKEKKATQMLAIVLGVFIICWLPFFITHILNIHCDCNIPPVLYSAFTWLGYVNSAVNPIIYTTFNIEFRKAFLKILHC

As to `Cc1noc2cc(OCCCCN3CCN4c5cccc6[nH]cc(c56)CC4C3)ccc12` (centres unmarked) [Compound I-5, 6-(4-(4,6,6a,7,9,10-hexahydro-8H-pyrazino[1,2-a]pyrrolo[4,3,2-de]quinolin-8-yl)butoxy)-3-methylbenzo[d] is oxazole], the inhibitory constant (Ki) at dopamine D2 receptors [1] came out at 37.1 nM. In addition, the “Affinity pKi ± SEM” value on dopamine D2 receptors [1] is listed as “(7.43 ± 0.09)”. Moreover, the concentration for a half-maximal effect (EC50) on dopamine D2 receptors [2] came out at 7.44 nM; on dopamine D2 receptors [3], 54 nM. Besides, the maximal effect (Emax) at dopamine D2 receptors [2] (setting [4]) is 83%; on dopamine D2 receptors [3] (setting [4]), 61%.
With `c1cc2c3c(c[nH]c3c1)CC1CN(CCCCOc3ccc4c(c3)OCC4)CCN21` (centres unmarked) [Compound I-6, 8-(4-((2,3-dihydrobenzofuran-6-yl)oxy)butyl)-6,6a,7,8,9,10-hexahydro-4H-pyrazino[1,2-a]pyrrolo[4,3,2-de]quinoline], the inhibition constant (Ki) on dopamine D2 receptors [1] is 51.6 nM. Besides, the “Affinity pKi ± SEM” value on dopamine D2 receptors [1] is listed as “(7.29 ± 0.10)”. Further, the half-maximal effective concentration (EC50) on dopamine D2 receptors [2] was found to be 6.64 nM; on dopamine D2 receptors [3], 61.6 nM. In addition, the maximal effect (Emax) at dopamine D2 receptors [2] (setting [4]) was 86%; on dopamine D2 receptors [3] (setting [4]), 61%.
Regarding `O=C1CCc2ccc(OCCCN3CCN4c5cccc6[nH]cc(c56)CC4C3)cc2N1` (centres unmarked) [Compound I-7, 7-(3-(4,6,6a,7,9,10-hexahydro-8H-pyrazino[1,2-a]pyrrolo[4,3,2-de]quinolin-8-yl)propoxy)-3,4-dihydroquinolin-2(1H)-one], affinity at dopamine D2 receptors [1] was put at a Ki of 403 nM. Moreover, at dopamine D2 receptors [1], the “Affinity pKi ± SEM” value is “(6.40 ± 0.12)”. Also, the EC50 was 138 nM at dopamine D2 receptors [2] and 275 nM at dopamine D2 receptors [3]. Further, the Emax at dopamine D2 receptors [2] (setting [4]) was determined as 104%; on dopamine D2 receptors [3] (setting [4]), 97%.
For `O=c1ccc2ccc(OCCCN3CCN4c5cccc6[nH]cc(c56)CC4C3)cc2[nH]1` (centres unmarked) [Compound I-8, 7-(3-(4,6,6a,7,9,10-hexahydro-8H-pyrazino[1,2-a]pyrrolo[4,3,2-de]quinolin-8-yl)propoxy)quinolin-2(1H)-one], the Ki on dopamine D2 receptors [1] was determined as 0.49 nM. Moreover, the “Affinity pKi ± SEM” value on dopamine D2 receptors [1] is given as “(9.31 ± 0.15)”. Further, the EC50 was found to be 38.9 nM on dopamine D2 receptors [2] and 110 nM on dopamine D2 receptors [3]. For the same compound, the Emax was 94% at dopamine D2 receptors [2] (setting [4]) and 98% on dopamine D2 receptors [3] (setting [4]).
Turning to `O=C(N[C@H]1CC[C@H](CCN2CCN3c4cccc5[nH]cc(c45)CC3C2)CC1)N1CCCCC1` (stereo partly drawn) [Compound I-12, N-(4-(2-(4,6,6a,7,9,10-hexahydro-8H-pyrazino[1,2-a]pyrrolo[4,3,2-de]quinolin-8-yl)ethyl)trans-cyclohexyl)piperidine-1-carboxamide], on dopamine D2 receptors [1], the affinity, expressed as Ki, was 27.1 nM. The “Affinity pKi ± SEM” value at dopamine D2 receptors [1] was “(7.57 ± 0.03)”. For the same compound, the EC50 on dopamine D2 receptors [2] worked out at 17.4 nM; at dopamine D2 receptors [3], 20.4 nM. Moreover, the values for the Emax at dopamine D2 receptors [2] (setting [4]) and at dopamine D2 receptors [3] (setting [4]) were 92% and 89%, respectively.
For `O=C(N[C@H]1CC[C@H](CCN2CCN3c4cccc5[nH]cc(c45)CC3C2)CC1)c1cc2ccccc2[nH]1` (some centres unmarked) [Compound I-13], on dopamine D2 receptors [1], the Ki is 16.3 nM and the “Affinity pKi ± SEM” value is reported as “(7.79 ± 0.07)”. The EC50 on dopamine D2 receptors [2] amounted to 6.74 nM. Moreover, on dopamine D2 receptors [2] (n=3), the “Gai1 BRET pEC50 ± SEM” value came to 8.17 ± 0.08. Also, the “Gai1 BRET Emax % ± SEM” value on dopamine D2 receptors [2] (setting [4]) was determined as 92 ± 3%. The EC50 at dopamine D2 receptors [3] was determined as 146 nM. In addition, on dopamine D2 receptors [3] (n=3), the “β-arrestin2 BRET pEC50 ± SEM” value turned out to be 6.84 ± 0.12. In addition, on dopamine D2 receptors [3] (setting [4]), the “β-arrestin2 BRET Emax % ± SEM” value was 48 ± 8%.
For `O=C(N[C@H]1CC[C@H](CCN2CCN3c4cccc5[nH]cc(c45)CC3C2)CC1)c1ccccc1` (stereo partly drawn) [Compound I-14, N-(4-(2-(4,6,6a,7,9,10-hexahydro-8H-pyrazino[1,2-a]pyrrolo[4,3,2-de]quinolin-8-yl)ethyl)trans-cyclohexyl)benzamide], the Ki on dopamine D2 receptors [1] amounted to 40.7 nM. The “Affinity pKi ± SEM” value on dopamine D2 receptors [1] is “(7.39 ± 0.05)”. Further, the concentration giving a half-maximal response (EC50) at dopamine D2 receptors [2] amounted to 1.67 nM; on dopamine D2 receptors [3], 27.7 nM. In addition, the Emax amounted to 72% at dopamine D2 receptors [2] (setting [4]) and 41% at dopamine D2 receptors [3] (setting [4]).

In general, Ki refers to a measure of affinity in units of concentration, obtained from inhibition or displacement. By EC50 is commonly meant the concentration needed to bring the measured effect to its halfway point. Usually Emax stands for the size of the effect at its maximum, as opposed to the concentration needed.
